Laboratory results: patent US9469650B2, “Melampomagnolide B derivatives” (BOARD OF TRUSTEES OF THE UNIVERSITY OF ARKANSAS, priority 2013, dated 2016)

Columns and labels:
BT-549 = test: panel of 60 human tumor cell lines, growth inhibition (Breast Cancer); conditions: Homo sapiens; for GI50: BT-549; for CC50: BT-549, read-out: LC50; for IC (TGI): BT-549, read-out: TGI
ACHN = test: panel of 60 human tumor cell lines, growth inhibition (Renal Cancer); conditions: Homo sapiens; for CC50: read-out: LC50; for IC (TGI): read-out: TGI
HCT-15 = test: panel of 60 human tumor cell lines, growth inhibition (Colon Cancer); conditions: Homo sapiens; for GI50: HCT-15; for CC50: HCT-15, read-out: LC50; for IC (TGI): HCT-15, read-out: TGI
HCC-2998 = test: as above; conditions: Homo sapiens; for GI50: HCC 2998; for CC50: HCC 2998, read-out: LC50; for IC (TGI): HCC 2998, read-out: TGI
RXF 393 = test: panel of 60 human tumor cell lines, growth inhibition (Renal Cancer); conditions: Homo sapiens; for CC50: RXF 393, read-out: LC50; for IC (TGI): RXF 393, read-out: TGI
HOP-92 = test: panel of 60 human tumor cell lines, growth inhibition (Non-Small Cell Lung Cancer); conditions: Homo sapiens; for CC50: HOP-92, read-out: LC50; for IC (TGI): HOP-92, read-out: TGI
SNB-19 = test: panel of 60 human tumor cell lines, growth inhibition (CNS Cancer); conditions: Homo sapiens; for GI50: SNB-19; for CC50: SNB-19, read-out: LC50; for IC (TGI): SNB-19, read-out: TGI
SF-539 = test: as above; conditions: Homo sapiens; for GI50: SF-539; for CC50: SF-539, read-out: LC50; for IC (TGI): SF-539, read-out: TGI
MCF7 = test: panel of 60 human tumor cell lines, growth inhibition (Breast Cancer); conditions: Homo sapiens; for GI50: MCF7, MCF7; for CC50: MCF7, read-out: LC50; for IC (TGI): MCF7, read-out: TGI
MOLT-4 = test: panel of 60 human tumor cell lines, growth inhibition (Leukemia); conditions: Homo sapiens; for GI50: MOLT-4; for CC50: MOLT-4, read-out: LC50; for IC (TGI): MOLT-4, read-out: TGI
NCI-H460 = test: panel of 60 human tumor cell lines, growth inhibition (Non-Small Cell Lung Cancer); conditions: Homo sapiens; for GI50: NCI-H460; for CC50: NCI-H460, read-out: LC50; for IC (TGI): NCI-H460, read-out: TGI
MDA-MB-435 = test: panel of 60 human tumor cell lines, growth inhibition (Melanoma); conditions: Homo sapiens; for GI50: MDA-MB-435; for CC50: MDA-MB-435, read-out: LC50; for IC (TGI): MDA-MB-435, read-out: TGI
SK-OV-3 = test: panel of 60 human tumor cell lines, growth inhibition (Ovarian Cancer); conditions: Homo sapiens; for GI50: SK-OV-3; for CC50: SK-OV-3, read-out: LC50; for IC (TGI): SK-OV-3, read-out: TGI
IGROV1 = test: as above; conditions: Homo sapiens; for GI50: IGROV-1; for CC50: IGROV-1, read-out: LC50
SK-MEL-5 = test: panel of 60 human tumor cell lines, growth inhibition (Melanoma); conditions: Homo sapiens; for GI50: SK-MEL-5; for CC50: SK-MEL-5, read-out: LC50; for IC (TGI): SK-MEL-5, read-out: TGI
NCI-H23 = test: panel of 60 human tumor cell lines, growth inhibition (Non-Small Cell Lung Cancer); conditions: Homo sapiens; for GI50: NCI-H23; for CC50: NCI-H23, read-out: LC50; for IC (TGI): NCI-H23, read-out: TGI
NCI-H322M = test: as above; conditions: Homo sapiens; for CC50: read-out: LC50; for IC (TGI): read-out: TGI
T-47D = test: panel of 60 human tumor cell lines, growth inhibition (Breast Cancer); conditions: Homo sapiens, T47D; for CC50: read-out: LC50; for IC (TGI): read-out: TGI
UO-31 = test: panel of 60 human tumor cell lines, growth inhibition (Renal Cancer); conditions: Homo sapiens; for GI50: UO-31; for CC50: UO-31, read-out: LC50; for IC (TGI): UO-31, read-out: TGI
[1] = RXF 393, RXF 393, NCI five dose

SMILES: C=C1C(=O)O[C@H]2[C@H]1CC/C(COC(=O)Nc1n[nH]c(SC)n1)=C\CC[C@@]1(C)O[C@@H]21 [JVM 64, ((1aR,7aS,10aS,10bS,E)-1a-methyl-8-methylene-9-oxo-1a,2,3,6,7,7a,8,9,10a,10b-decahydrooxireno[2′,3′:9,10]cyclodeca[1,2-b]furan-5-yl)methyl-(5-(methylthio)-1H-1,2,4-triazol-3-yl)carbamate]
- GI50 (BT-549): 1.47 µM
- CC50 (BT-549): 6.24 µM
- IC (TGI) (BT-549): 3.83 µM
- GI50 (ACHN): 1.75 µM
- CC50 (ACHN): 17.8 µM
- IC (TGI) (ACHN): 4.89 µM
- GI50 (HCT-15): 2.4 µM
- CC50 (HCT-15): 38 µM
- IC (TGI) (HCT-15): 9.05 µM
- GI50 (HCC-2998): 7.63 µM
- CC50 (HCC-2998): 52.7 µM
- IC (TGI) (HCC-2998): 21.5 µM
- GI50 (RXF 393; RXF 393, RXF 393, 5-dose assay): 900 nM
- GI50 (RXF 393; [1]): 906 nM
- CC50 (RXF 393): 6.02 µM
- IC (TGI) (RXF 393): 2.41 µM
- GI50 (RXF 393; RXF 393, renal cancer cell line RXF 393): 900 nM
- GI50 (HOP-92; HOP-92, HOP-92, 5-dose assay): 650 nM
- GI50 (HOP-92; HOP-92, HOP-92, NCI five dose): 655 nM
- GI50 (HOP-92; HOP-92, non-small cell lung cancer cell line HOP-92): 650 nM
- CC50 (HOP-92): 20.4 µM
- IC (TGI) (HOP-92): 3.84 µM
- GI50 (SNB-19): 15.9 µM
- CC50 (SNB-19): > 100 µM
- IC (TGI) (SNB-19): 40 µM
- GI50 (SF-539): 1.76 µM
- CC50 (SF-539): 9.46 µM
- IC (TGI) (SF-539): 4.08 µM
- GI50 (MCF7; 5-dose assay): 1330 nM
- GI50 (MCF7; NCI five dose): 1330 nM
- CC50 (MCF7): 70.2 µM
- IC (TGI) (MCF7): 10.5 µM
- GI50 (MOLT-4): 2.32 µM
- CC50 (MOLT-4): 88.5 µM
- IC (TGI) (MOLT-4): 6.59 µM
- GI50 (NCI-H460): 4.03 µM
- CC50 (NCI-H460): > 100 µM
- IC (TGI) (NCI-H460): 18.9 µM
- GI50 (MDA-MB-435): 2.24 µM
- CC50 (MDA-MB-435): 74.8 µM
- IC (TGI) (MDA-MB-435): 7.13 µM
- GI50 (SK-OV-3): 11.7 µM
- CC50 (SK-OV-3): > 100 µM
- IC (TGI) (SK-OV-3): 35.8 µM
- GI50 (IGROV1): 3.66 µM
- CC50 (IGROV1): 57.8 µM
- IC (TGI) (IGROV1; IGROV-1, read-out: TGI): 14.2 µM
- GI50 (SK-MEL-5): 3.13 µM
- CC50 (SK-MEL-5): 37.5 µM
- IC (TGI) (SK-MEL-5): 12.4 µM
- GI50 (NCI-H23): 3.21 µM
- CC50 (NCI-H23): 63.6 µM
- IC (TGI) (NCI-H23): 14.1 µM
- GI50 (NCI-H322M): 14.2 µM
- CC50 (NCI-H322M): 60.3 µM
- IC (TGI) (NCI-H322M): 29.2 µM
- GI50 (T-47D): 2.23 µM
- CC50 (T-47D): 70.9 µM
- IC (TGI) (T-47D): 5.31 µM
- GI50 (UO-31): 1.98 µM
- CC50 (UO-31): 34 µM
- IC (TGI) (UO-31): 7.86 µM

SMILES: C=C1C(=O)O[C@H]2[C@H]1CC/C(COC(=S)n1ccnc1)=C\CC[C@@]1(C)O[C@@H]21 [JVM 66]
- GI50 (BT-549): 18.3 µM
- CC50 (BT-549): > 100 µM
- IC (TGI) (BT-549): 68 µM
- GI50 (ACHN): 6.73 µM
- CC50 (ACHN): 50.7 µM
- IC (TGI) (ACHN): 20.4 µM
- GI50 (HCT-15): 6.88 µM
- CC50 (HCT-15): 89.2 µM
- IC (TGI) (HCT-15): 27.1 µM
- GI50 (HCC-2998): 16.8 µM
- CC50 (HCC-2998): 63.2 µM
- IC (TGI) (HCC-2998): 12.6 µM
- GI50 (RXF 393; [1]): 3080 nM
- CC50 (RXF 393): 57.4 µM
- IC (TGI) (RXF 393): 11.4 µM
- GI50 (HOP-92; HOP-92, HOP-92, NCI five dose): 6830 nM
- CC50 (HOP-92): 83.2 µM
- IC (TGI) (HOP-92): 26.9 µM
- GI50 (SNB-19): 54.3 µM
- CC50 (SNB-19): > 100 µM
- IC (TGI) (SNB-19): > 100 µM
- GI50 (SF-539): 16.7 µM
- CC50 (SF-539): 69.1 µM
- IC (TGI) (SF-539): 34 µM
- GI50 (MCF7; NCI five dose): 4190 nM
- CC50 (MCF7): 76.7 µM
- IC (TGI) (MCF7): 19.8 µM
- GI50 (MOLT-4): 6.38 µM
- CC50 (MOLT-4): > 100 µM
- IC (TGI) (MOLT-4): 34.4 µM
- GI50 (NCI-H460): 15.7 µM
- CC50 (NCI-H460): > 100 µM
- IC (TGI) (NCI-H460): 71.4 µM
- GI50 (MDA-MB-435): 16.7 µM
- CC50 (MDA-MB-435): > 100 µM
- IC (TGI) (MDA-MB-435): 43.8 µM
- GI50 (SK-OV-3): 61.4 µM
- CC50 (SK-OV-3): > 100 µM
- IC (TGI) (SK-OV-3): > 100 µM
- GI50 (IGROV1): 9.04 µM
- CC50 (IGROV1): > 100 µM
- GI50 (SK-MEL-5): 13.3 µM
- CC50 (SK-MEL-5): 55.6 µM
- IC (TGI) (SK-MEL-5): 27.7 µM
- GI50 (NCI-H23): 13.5 µM
- CC50 (NCI-H23): > 100 µM
- IC (TGI) (NCI-H23): 59.8 µM
- GI50 (NCI-H322M): 69.5 µM
- CC50 (NCI-H322M): > 100 µM
- IC (TGI) (NCI-H322M): 106 µM
- GI50 (T-47D): 12.9 µM
- CC50 (T-47D): > 100 µM
- IC (TGI) (T-47D): 42.4 µM
- GI50 (UO-31): 8.37 µM
- CC50 (UO-31): 58.1 µM
- IC (TGI) (UO-31): 23.4 µM
